# According to patent US6632797B2, “Method of treating angiogenesis” (priority 1996, dated 2003):
# Where “and” joins values, the source holds several entries; their conditions need not be identical. Equal values may be shown once.
# Legend:
# [1] = tested on: Nerve growth factors (NGFA from Vipera lebetina Venom and NGFB from Mouse Submaxillary glands); experiment: Interaction between NGF and radioactive IP3, co-elution on Sephadex G-25 / Heparin-Sepharose columns; format: binding; conditions: co-elution from Sephadex G-25, 50 mM Hepes pH 7.4
# Method: The mixture was incubated for 1 hour at 4° C.
# This type of column fractionate substances according to molecular weight.
# The incubate was loaded on the column and was eluted with 50 mM Hepes in fractions of 0.4 ml each.
# To further determine the interaction, the fractions with radioactivity and UV-absorbance were loaded on a Heparin-Sepharose CL-6B column (Pharmacia Biotech, Sweden) (volume 25 ml, height 20 cm). […] Elution was performed with 50 mM Hepes, pH 7.4 and each fraction of 1 ml was collected for determination of radioactivity and UV absorbance. A peak with radioactivity but without UV absorption was loaded on a similar Sephadex G-25 column as described above and was eluted with the same type of buffer. Maximum radioactivity was obtained in fraction number 13 i.e. in this case the substance with radioactivity was more retained on the column.
# [2] = tested on: heterotopic bone formation; experiment: Rabbit heterotopic bone (HB) development model; format: in vivo; design: key: ++++: very marked amount of HB; +++: marked amount of HB; ++: between slight and marked amount of HB; +: slight amount of HB; 0: none amount of HB; conditions: 1 mg/kg/hour s.c. osmotic minipump, day 42
# Method: Heterotopic bone formation is caused by a local growth and formation of bone. One essential component in this process is the activation of growth factors.
# The right hind limb of adult rabbits (weight about 4.0 kg) was immobilized with the knee in extension by means of a plastic splint and an elastic bandage, so that the Vastus intermedius profundus (VIP) muscle was in a shortened position and the hip joint could be moved freely.
# According to the standard model the rabbits were treated by removing the splint daily for 2-3 minutes for forcible and rapid manipulation of the knee.
# IP3 was administered via subcutaneously operated osmotic minipumps to three rabbits. The dose level was 1 mg/kg/hour, and the time of application period was 14-21 days. The control group, another three rabbits received NaCl-solution by osmotic minipumps.
# Anteposterior and lateral radiographs were made of the hind limbs of all rabbits weekly throughout the duration of the experiment which lasted 42 days.
# At the end of the experiment the rabbits were killed with an overdose of Mebunat and the left and right femoral bones of each rabbit were dissected and boiled for macroscopic examination.
# Wish tumour cells = experiment: Wish tumour cell-induced bone tumours on the calvaria of nude mice; format: in vivo; design: key: +: small and non-severe tumours; ++++: large and severe tumours; conditions: 120 mg/kg/day osmotic minipump for 14 days; individual animals
# Method: The injection of a specific cell-line Wish tumour cells, induces proliferation of osteoblasts on the calvaria of nude mice leading to bone tumours.
# Wish cells (American Type Culture Collection^R, ATCC (R) F-12784 25 CCL WITH×01166) were used for inocculation. Cells were grown on MEM supplemented with 15% FCS, 2% glutamine and streptomycin-penicillin/garamycin. Cells were grown as a monolayer and trypsinised and split in the ratio 1:3 to 1:4. All together 360 million cells were harvested and suspended in 7 ml for a final concentration of approximately 10 million cells per 0.2 ml.
# The osmotic pumps with IP3 and saline respectively were implanted on the same day as the inocculation of Wish-cells were performed.
# A 27 gauge needle on a 1 ml syringe was used for the injections of Wish-cells. The injection was done under the skin of the calvaria scratching the periosteum.
# At day 13 all animals were given an intraperiotoneal injection of demeclocycline (Sigma Chemicals Co. St Louis). All animals were investigated regarding the occurrence of and size of tumours. The size of tumours were measured according to a scale from
# + which represents small and non-severe tumours to
# ++++ which represents large and severe tumours.
# [3] = biological target: T1, Fibroblast growth factor acidic (aFGF) (Homo sapiens, UniProt P05230); experiment: aFGF/Matrigel-induced swelling (tumor-like matrix) in nude mice; format: in vivo, BALBc nude mice; conditions: osmotic minipump, 0.4 g/ml, 14 days
# T1 construct: purchased Sigma (USA)
# Method: Fibroblast growth factor acidic (aFGF) from Sigma (USA), was diluted in a buffer, RPMI-1640 (Life Technologies, UK). 25 μg of aFGF was diluted in 125 μl buffer and 50 μl was transferred to a small Eppendorf tube. 150 μl of Matrigel® basement membrane matrix from Becton and Dickinson (UK) was added to the tube and the content was thoroughly mixed for 60 minutes. All equipment was sterilized by irradiation or autoclaving (115° C. in 10 minutes) before use and all procedures were performed at 7° C. The mixture was kept in an icebath before the animal experiment.
# Ten female, specific pathogen free BALBc nude mice with a weight of 18-22 g were maintained in autoclaved type III makrolon cages with filter tops in horizontal air flow cabinets in a barrier unit equipped with HEPA filters. Autoclaved bedding, irradiated feed and sterile filtered water was used. Temperature and humidity was kept constant at 22±2° C., 65±5 RH.
# When fibroblast growth factor (FGF) and Matrigel® is mixed and inovulated to nude mice, developments of a swelling process ressembling tumor begin to develop.
# A portion of the mixture of Matrigel® and a FGF was inoculated subcutaneously by a 23 G needle in the right flank of the mice. Two days before all mice were surgically prepared with osmotic minipumps (Alzet, model 2002).
# To another group of five mice saline was administered as a control group.
# [4] = tested on: basic fibroblast growth factor (b FGF); experiment: b FGF-induced bone formation on the calvaria of mice; format: in vivo; design: key to Severeness of bone formation: 0: no bone formation; ++++: severe bone formation
# Method: Injection of basic fibroblast growth factor (b FGF) stimulates osteoblastic activity and leads to bone formation.
# The osmotic minipumps were implanted on day 1.
# To the calvaria of each animal, 10 μl of b FGF (concentration 50 μg/ml) was injected four times daily of the period of day 2 to day 4.
# After the experimental period of 14 days each animal was investigated macroscopically and the histological preparations were further examined by conventional routines.
# Macroscopically visible bone formation was measured according to scale from
# 0 which represents no bone formation to
# ++++ which represents severe bone formation
# T1 sequence (P05230 whole entry, species assumed): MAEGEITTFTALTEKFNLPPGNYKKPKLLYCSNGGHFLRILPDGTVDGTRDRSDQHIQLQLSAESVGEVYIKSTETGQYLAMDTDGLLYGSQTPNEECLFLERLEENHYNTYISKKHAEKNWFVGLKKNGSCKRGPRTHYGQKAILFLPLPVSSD
smiles,measurement,setting,value
"O=P(O)(O)OC1C(O)C(O)C(O)C(OP(=O)(O)O)C1OP(=O)(O)O [IP3, D-myo-inositol-1,2,6-trisphosphate]",interaction between NGF and IP3,[1],strong interaction
same,Amount of HB,"[2]; application of IP3 14 days, individual rabbits, 1 mg/kg",+ and 0
same,Amount of HB,"[2]; application of IP3 21 days, individual rabbit",0
same,Severeness of tumours,Wish tumour cells,++++
same,volume of the formed matrix,[3]; Day 1,150 mm^3
same,volume of the formed matrix,[3]; Day 4,125 mm^3
same,volume of the formed matrix,[3]; Day 5,90 mm^3
same,volume of the formed matrix,[3]; Day 6,50 mm^3
same,volume of the formed matrix,[3]; Day 7,50 mm^3
same,volume of the formed matrix,[3]; Day 8,70 mm^3
same,volume of the formed matrix,[3]; Day 9,70 mm^3
same,histological examination of the calvaria,[4]; 120 mg/kg/day for 14 days,anti-angiogenic properties
same,Severeness of bone formation,"[4]; 120 mg/kg/day osmotic minipump for 14 days, individual animals",0
